From US20100041642A1, “UREA INHIBITORS OF MAP KINASES” (LOCUS PHARMACEUTICALS, INC., priority 2008, published 2010)

Molecular target: p38 (Homo sapiens, UniProt Q16539)
Experiment: Protein Kinase Assay (33P incorporation from γ-[33P]ATP into GST-ATF-2)
Assay type: biochemical
Details: 2 nM p38, preincubated 20 min at 30° C.; 10 uM cold ATP, 2 uM GST-ATF2, 70 min; read-out: ACT. (Activity), IC50 category in Protein Kinase Assay
In short: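 Compounds preincubated 20 min at 30 °C with 2 nM p38; reaction started with 2 uM GST-ATF-2 (aa 19-96) and 10 uM ATP plus γ-[33P]ATP, pH 7.5, 70 min at 30 °C, 2% DMSO. Phosphoric acid stop; 33P-labelled substrate captured on phosphocellulose and counted by scintillation.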

Sequence of p38 (Q16539 whole entry): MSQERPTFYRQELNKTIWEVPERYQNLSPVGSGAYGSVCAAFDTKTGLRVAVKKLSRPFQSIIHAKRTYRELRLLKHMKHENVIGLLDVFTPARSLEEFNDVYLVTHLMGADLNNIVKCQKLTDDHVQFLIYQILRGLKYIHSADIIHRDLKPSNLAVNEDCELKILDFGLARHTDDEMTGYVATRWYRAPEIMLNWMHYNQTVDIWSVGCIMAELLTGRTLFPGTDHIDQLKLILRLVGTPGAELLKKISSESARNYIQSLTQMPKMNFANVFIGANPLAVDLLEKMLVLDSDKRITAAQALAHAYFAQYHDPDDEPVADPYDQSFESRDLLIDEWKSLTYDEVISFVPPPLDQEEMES

SMILES	IC50
CCc1ccc(-c2cc(NC(=O)Nc3sc(C(C)(C)C)cc3C(=O)N3CCN(C)C(=O)C3(C)C)ccc2C)nc1 [1-(5-tert-butyl-3-(2,2,4-trimethyl-3-oxopiperazine-1-carbonyl)thiophen-2-yl)-3-(3-(5-ethylpyridin-2-yl)-4-methylphenyl)urea]	< 100 nM
Cc1ccc(NC(=O)Nc2sc(C(C)(C)C)cc2C(=O)N2CCN(C)C(=O)C2(C)C)cc1-c1ccc(C(C)O)nc1 (stereo not drawn) [1-(5-tert-butyl-3-(2,2,4-trimethyl-3-oxopiperazine-1-carbonyl)thiophen-2-yl)-3-(3-(6-(1-hydroxyethyl)pyridin-3-yl)-4-methylphenyl)urea]	< 100 nM
Cc1ccc(NC(=O)Nc2sc(C(C)(C)C)cc2C(=O)N2CCN(C)C(=O)C2(C)C)cc1-c1ccc(C(C)(C)O)nc1 [1-(5-tert-butyl-3-(2,2,4-trimethyl-3-oxopiperazine-1-carbonyl)thiophen-2-yl)-3-(3-(6-(2-hydroxypropan-2-yl)pyridin-3-yl)-4-methylphenyl)urea]	< 100 nM
COCCOc1ccc(-c2cc(NC(=O)Nc3sc(C(C)(C)C)cc3C(=O)N3CCN(C)C(=O)C3(C)C)ccc2C)cn1 [1-(5-tert-butyl-3-(2,2,4-trimethyl-3-oxopiperazine-1-carbonyl)thiophen-2-yl)-3-(3-(6-(2-methoxyethoxy)pyridin-3-yl)-4-methylphenyl)urea]	< 100 nM
CCN(CC)Cc1ccc(-c2cc(NC(=O)Nc3sc(C(C)(C)C)cc3C(=O)N3CCN(C)C(=O)C3(C)C)ccc2C)cn1 [1-(5-tert-butyl-3-(2,2,4-trimethyl-3-oxopiperazine-1-carbonyl)thiophen-2-yl)-3-(3-(6-((diethylamino)methyl)pyridin-3-yl)-4-methylphenyl)urea]	< 100 nM
CCOc1ccc(-c2cc(NC(=O)Nc3sc(C(C)(C)C)cc3C(=O)N3CCN(C)C(=O)C3(C)C)ccc2C)cn1 [1-(5-tert-butyl-3-(2,2,4-trimethyl-3-oxopiperazine-1-carbonyl)thiophen-2-yl)-3-(3-(6-ethoxypyridin-3-yl)-4-methylphenyl)urea]	< 100 nM
CCc1ccc(-c2cc(NC(=O)Nc3sc(C(C)(C)C)cc3C(=O)N3CCN(C)C(=O)C3(C)C)ccc2C)cn1 [1-(5-tert-butyl-3-(2,2,4-trimethyl-3-oxopiperazine-1-carbonyl)thiophen-2-yl)-3-(3-(6-ethylpyridin-3-yl)-4-methylphenyl)urea]	< 100 nM
CCc1ccc(-c2cc(NC(=O)Nc3sc(C(C)(C)C)cc3C(=O)N3CCN(C)C(=O)C3(C)C)cc(F)c2C)cn1 [1-(5-tert-butyl-3-(2,2,4-trimethyl-3-oxopiperazine-1-carbonyl)thiophen-2-yl)-3-(3-(6-ethylpyridin-3-yl)-5-fluoro-4-methylphenyl)urea]	< 100 nM
Cc1ccc(NC(=O)Nc2sc(C(C)(C)C)cc2C(=O)N2CCN(C)C(=O)C2(C)C)cc1-c1ccc(OC(C)C)nc1 [1-(5-tert-butyl-3-(2,2,4-trimethyl-3-oxopiperazine-1-carbonyl)thiophen-2-yl)-3-(3-(6-isopropoxypyridin-3-yl)-4-methylphenyl)urea]	< 100 nM
COc1ccc(-c2cc(NC(=O)Nc3sc(C(C)(C)C)cc3C(=O)N3CCN(C)C(=O)C3(C)C)ccc2C)cn1 [1-(5-tert-butyl-3-(2,2,4-trimethyl-3-oxopiperazine-1-carbonyl)thiophen-2-yl)-3-(3-(6-methoxypyridin-3-yl)-4-methylphenyl)urea]	< 100 nM
COc1ccc(-c2cc(NC(=O)Nc3sc(C(C)(C)C)cc3C(=O)N3CCN(C)C(=O)C3(C)C)cc(F)c2C)cn1 [1-(5-tert-butyl-3-(2,2,4-trimethyl-3-oxopiperazine-1-carbonyl)thiophen-2-yl)-3-(3-fluoro-5-(6-methoxypyridin-3-yl)-4-methylphenyl)urea]	< 100 nM
Cc1ccc(NC(=O)Nc2sc(C(C)(C)C)cc2C(=O)N2CCN(C)C(=O)C2(C)C)cc1N1C(=O)CN(C)C1=O [1-(5-tert-butyl-3-(2,2,4-trimethyl-3-oxopiperazine-1-carbonyl)thiophen-2-yl)-3-(4-methyl-3-(3-methyl-2,5-dioxoimidazolidin-1-yl)phenyl)urea]	< 100 nM
Cc1ccc(NC(=O)Nc2sc(C(C)(C)C)cc2C(=O)N2CCN(C)C(=O)C2(C)C)cc1-c1ccc(CN2CCOCC2)cn1 [1-(5-tert-butyl-3-(2,2,4-trimethyl-3-oxopiperazine-1-carbonyl)thiophen-2-yl)-3-(4-methyl-3-(5-(morpholinomethyl)pyridin-2-yl)phenyl)urea]	< 100 nM
Cc1ccc(NC(=O)Nc2sc(C(C)(C)C)cc2C(=O)N2CCN(C)C(=O)C2(C)C)cc1-c1ccc(C(C)N2CCOCC2)nc1 (stereo not drawn) [1-(5-tert-butyl-3-(2,2,4-trimethyl-3-oxopiperazine-1-carbonyl)thiophen-2-yl)-3-(4-methyl-3-(6-(1-morpholinoethyl)pyridin-3-yl)phenyl)urea]	< 100 nM
Cc1ccc(NC(=O)Nc2sc(C(C)(C)C)cc2C(=O)N2CCN(C)C(=O)C2(C)C)cc1-c1ccc(N2CCN(C)CC2)nc1 [1-(5-tert-butyl-3-(2,2,4-trimethyl-3-oxopiperazine-1-carbonyl)thiophen-2-yl)-3-(4-methyl-3-(6-(4-methylpiperazin-1-yl)pyridin-3-yl)phenyl)urea]	< 100 nM
Cc1nnc(-c2ccc(-c3cc(NC(=O)Nc4sc(C(C)(C)C)cc4C(=O)N4CCN(C)C(=O)C4(C)C)ccc3C)cn2)o1 [1-(5-tert-butyl-3-(2,2,4-trimethyl-3-oxopiperazine-1-carbonyl)thiophen-2-yl)-3-(4-methyl-3-(6-(5-methyl-1,3,4-oxadiazol-2-yl)pyridin-3-yl)phenyl)urea]	< 100 nM
Cc1ccc(NC(=O)Nc2sc(C(C)(C)C)cc2C(=O)N2CCN(C)C(=O)C2(C)C)cc1-c1ccc(CN2CCN(C)CC2)nc1 [1-(5-tert-butyl-3-(2,2,4-trimethyl-3-oxopiperazine-1-carbonyl)thiophen-2-yl)-3-(4-methyl-3-(6-((4-methylpiperazin-1-yl)methyl)pyridin-3-yl)phenyl)urea]	< 100 nM
Cc1ccc(NC(=O)Nc2sc(C(C)(C)C)cc2C(=O)N2CCN(C)C(=O)C2(C)C)cc1-c1ccc(C(=O)N2CCOCC2)nc1 [1-(5-tert-butyl-3-(2,2,4-trimethyl-3-oxopiperazine-1-carbonyl)thiophen-2-yl)-3-(4-methyl-3-(6-(morpholine-4-carbonyl)pyridin-3-yl)phenyl)urea]	< 100 nM
Cc1ccc(NC(=O)Nc2sc(C(C)(C)C)cc2C(=O)N2CCN(C)C(=O)C2(C)C)cc1-c1ccc(CN2CCOCC2)nc1 [1-(5-tert-butyl-3-(2,2,4-trimethyl-3-oxopiperazine-1-carbonyl)thiophen-2-yl)-3-(4-methyl-3-(6-(morpholinomethyl)pyridin-3-yl)phenyl)urea]	< 100 nM
Cc1ccc(NC(=O)Nc2sc(C(C)(C)C)cc2C(=O)N2CCN(C)C(=O)C2(C)C)cc1-c1ccc(CN2CCCC2)nc1 [1-(5-tert-butyl-3-(2,2,4-trimethyl-3-oxopiperazine-1-carbonyl)thiophen-2-yl)-3-(4-methyl-3-(6-(pyrrolidin-1-ylmethyl)pyridin-3-yl)phenyl)urea]	< 100 nM
Cc1ccc(-c2cc(NC(=O)Nc3sc(C(C)(C)C)cc3C(=O)N3CCN(C)C(=O)C3(C)C)ccc2C)cn1 [1-(5-tert-butyl-3-(2,2,4-trimethyl-3-oxopiperazine-1-carbonyl)thiophen-2-yl)-3-(4-methyl-3-(6-methylpyridin-3-yl)phenyl)urea]	< 100 nM
